SMILES strings stand for the structures.

One series relates to HL-60. In words: Cytotoxicity against human HL60 cells. Format: cell-based.
In series [1] the target is T1, Tyrosine-protein phosphatase non-receptor type 1 (Homo sapiens, UniProt P18031).
T1 sequence (P18031 whole entry): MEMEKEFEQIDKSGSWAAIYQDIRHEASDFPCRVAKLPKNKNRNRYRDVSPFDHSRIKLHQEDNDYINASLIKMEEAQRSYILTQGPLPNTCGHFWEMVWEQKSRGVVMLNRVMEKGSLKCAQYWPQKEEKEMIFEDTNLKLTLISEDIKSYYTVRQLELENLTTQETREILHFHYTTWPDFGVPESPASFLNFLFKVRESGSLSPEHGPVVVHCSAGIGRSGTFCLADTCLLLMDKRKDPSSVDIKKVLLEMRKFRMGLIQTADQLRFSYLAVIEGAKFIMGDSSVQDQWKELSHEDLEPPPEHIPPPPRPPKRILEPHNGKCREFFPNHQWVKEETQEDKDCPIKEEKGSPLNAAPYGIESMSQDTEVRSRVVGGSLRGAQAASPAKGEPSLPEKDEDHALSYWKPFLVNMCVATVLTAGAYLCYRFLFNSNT
In words: Inhibition of human recombinant PTP1B-mediated pNPP hydrolysis.

A further series concerns A549. Briefly: Cytotoxicity against human A549 cells. It counts as cell-based.

In general, IC50 refers to the concentration that inhibits the measured activity by half. Turning to `COC(=O)/C1=C\C=C(\C(C)C)CC/C(C)=C/CC/C(C)=C/CC1`, the Activity result with HL-60 and in the series with A549 was “Non-toxic” throughout. In series [1], the IC50 came to 5.95 µM.

In the case of `COC(=O)/C1=C\CC[C@]2(C)O[C@H]2CC/C(C(=O)OC)=C/C=C(/C(C)C)CC1`, the Activity result in the series on HL-60 and with A549 was “Non-toxic” in each case. Besides, the concentration for half-maximal inhibition (IC50) in series [1] is ≥ 53.1 µM.

Regarding `COC(=O)/C1=C\C=C(\C(C)C)CC/C(C(=O)O)=C/CC[C@]2(C)O[C@H]2CC1`, the Activity result in the series with HL-60 and in the series on A549 was “Non-toxic” each time. Also, the half-inhibitory concentration (IC50) in series [1] was ≥ 55.2 µM.

Take `COC(=O)/C1=C\CC[C@](C)(O)[C@H](O)CC/C(C(=O)OC)=C\C=C(/C(C)C)CC1`: the Activity entry in the series on HL-60 and in the series with A549 was “Non-toxic” in each case. Besides, the IC50 in series [1] is ≥ 50.7 µM.

`CC(=O)O[C@@H]1C/C(C)=C/C/C=C(/C)CC(=O)CC2=C[C@@H](OC2=O)[C@@H]1C(C)C`: the Activity entry with HL-60 and in the series on A549 was “Non-toxic” throughout. Further, the IC50 in series [1] is ≥ 53.4 µM.

Regarding `C/C1=C\C=C(\C(C)C)CC/C(C)=C/CC/C(C)=C/CC1`, the Activity result in the series on HL-60 and with A549 was “Non-toxic” throughout. The IC50 in series [1] is 26.6 µM.

Turning to `CC(=O)O[C@@H]1C/C(C)=C/CCC(C)CC(=O)CC2=C[C@@H](OC2=O)[C@@H]1C(C)C` (stereo partly drawn), the Activity entry with HL-60 and in the series on A549 was “Non-toxic” throughout. Also, the half-inhibitory concentration (IC50) in series [1] was ≥ 53.1 µM.

Turning to `C/C1=C/C=C(/C(C)C)CCC2=CCC[C@](C)(OC2=O)C(=O)CC1`, the Activity result in the series on HL-60 and in the series on A549 was “Non-toxic” each time. In series [1], the half-maximal inhibitory concentration (IC50) amounted to 15.4 µM.

`CC(C)=C1C/C=C(\C)CC/C=C(\C)CC/C=C(\C)CC1`: the Activity result in the series with HL-60 and in the series on A549 was “Non-toxic” throughout. Besides, the IC50 in series [1] was ≥ 73.4 µM.

Consider `COC(=O)/C1=C\C=C(\C(C)C)CCC2=CCC[C@](C)(OC2=O)C(=O)CC1` [KETOEMBLIDE], for which the Activity entry with HL-60 and in the series with A549 was “Non-toxic” each time. Also, in series [1], the half-inhibitory concentration (IC50) was found to be 27.2 µM.

`COC(=O)/C1=C/C=C(/C(C)C)CCC2=CCC[C@](C)(OC2=O)C(=O)CC1` [SARCRASSIN E]: the Activity entry in the series on HL-60 and in the series on A549 was “Non-toxic” throughout. Moreover, the IC50 in series [1] was found to be 6.33 µM.

These data come from ChEMBL document CHEMBL2413037, “Cembrane diterpenoids from the soft coral Sarcophyton trocheliophorum Marenzeller as a new class of PTP1B inhibitors” (Bioorg Med Chem, 2013).
